# Source: patent US10214542B2, “Modified macrocyclic compounds” (BAYER PHARMA AKTIENGESELLSCHAFT, priority 2015, dated 2019)
# What was measured:
# [1] = target: T1, CDK2/CycE (Homo sapiens, UniProt P24941); test: CDK2/CycE kinase assay (TR-FRET, Method 2a); assay type: biochemical; conditions: 10 μM ATP
# T1 construct: GST; purchased ProQinase GmbH (Freiburg, Germany); host or cells: insect cells (Sf9)
# Description: 2a. CDK2/CycE Kinase Assay:
# CDK2/CycE-inhibitory activity of compounds of the present invention was quantified employing the CDK2/CycE TR-FRET assay as described in the following paragraphs:
# Recombinant fusion proteins of GST and human CDK2 and of GST and human CycE, expressed in insect cells (Sf9) and purified by Glutathion-Sepharose affinity chromatography, were purchased from ProQinase GmbH (Freiburg, Germany). As substrate for the kinase reaction biotinylated peptide biotin-Ttds-YISPLKSPYKISEG (C-terminus in amid form) was used which can be purchased e.g. from the company JERINI Peptide Technologies (Berlin, Germany).
# For the assay 50 nl of a 100 fold concentrated solution of the test compound in DMSO was pipetted into a black low volume 384 well microtiter plate (Greiner Bio-One, Frickenhausen, Germany), 2 μl of a solution of CDK2/CycE in aqueous assay buffer [50 mM Tris/HCl pH 8.0, 10 mM MgCl2, 1.0 mM dithiothreitol, 0.1 mM sodium ortho-vanadate, 0.01% (v/v) Nonidet-P40 (Sigma)] were added and the mixture was incubated for 15 min at 22° C. to allow pre-binding of the test compounds to the enzyme before the start of the kinase reaction. […] The concentration of CDK2/CycE was adjusted depending of the activity of the enzyme lot and was chosen appropriate to have the assay in the linear range, typical concentrations were in the range of 130 ng/mL. The reaction was stopped by the addition of 5 μl of a solution of TR-FRET detection reagents (0.2 μM streptavidine-XL665 [Cisbio Bioassays, Codolet, France] and 1 nM anti-RB(pSer807/pSer811)-antibody from BD Pharmingen [#558389] and 1.2 nM LANCE EU-W1024 labeled anti-mouse IgG antibody [Perkin-Elmer, product no. AD0077]) in an aqueous EDTA-solution (100 mM EDTA, 0.2% (w/v) bovine serum albumin in 100 mM HEPES pH 7.5).
# The resulting mixture was incubated 1 h at 22° C. to allow the formation of complex between the phosphorylated biotinylated peptide and the detection reagents. Subsequently the amount of phosphorylated substrate was evaluated by measurement of the resonance energy transfer from the Eu-chelate to the streptavidine-XL. Therefore, the fluorescence emissions at 620 nm and 665 nm after excitation at 350 nm was measured in a TR-FRET reader, e.g. a Rubystar (BMG Labtechnologies, Offenburg, Germany) or a Viewlux (Perkin-Elmer). The ratio of the emissions at 665 nm and at […] was taken as the measure for the amount of phosphorylated substrate. The data were normalised (enzyme reaction without inhibitor=0% inhibition, all other assay components but no enzym=100% inhibition).
# [2] = test system: MOLM-13 cells; test: Proliferation assay, Cell Titre-Glo viability (Method 3); assay type: cell-based; conditions: Homo sapiens; MOLM-13, 72-hour exposure; read-out: Inhibition of MOLM-13 cell proliferation IC50
# Protocol: A2780 human ovarian carcinoma cells (ECACC #93112519) and non-adherent MOLM-13 human acute myeloid leukemia cells (DSMZ ACC 554) were seeded at a density of 3,000 cell/well (A2780) or 5,000 cells/well (MOLM-13) in a 96-well multititer plate in 150 μL of growth medium supplemented 10% fetal calf serum. After 24 hours, cell viability of one plate (zero-point plate) was determined with the Cell Titre-Glo Luminescent Cell Viability Assay (Promega), while the medium of the other plates was supplemented with the test substances in various concentrations (0 μM, as well as in the range of 0.0001-10 μM; the final concentration of the solvent dimethyl sulfoxide was adjusted to 0.1%) using a Hewlett-Packard HP D300 Digital Dispenser. Cell viability was assessed after 72-hour exposure with the Cell
# Titre-Glo Luminescent Cell Viability Assay (Promega). IC50 values (inhibitory concentration at 50% of maximal effect) were determined by means of a 4 parameter fit on measurement data which were normalized to vehicle (DMSO) treated cells (=100%) and measurement readings taken immediately before compound exposure (=0%).
# [3] = target: T2, CDK9/CycT1 (Homo sapiens, UniProt P50750); test: CDK9/CycT1 high ATP kinase assay (TR-FRET, Method 1b); assay type: biochemical; conditions: Method 1b, 2 mM ATP
# T2 construct: Recombinant full-length His-tagged human CDK9 and CycT1; His; purchased Invitrogen PV4131; host or cells: insect cells
# T2 sequence (P50750 whole entry): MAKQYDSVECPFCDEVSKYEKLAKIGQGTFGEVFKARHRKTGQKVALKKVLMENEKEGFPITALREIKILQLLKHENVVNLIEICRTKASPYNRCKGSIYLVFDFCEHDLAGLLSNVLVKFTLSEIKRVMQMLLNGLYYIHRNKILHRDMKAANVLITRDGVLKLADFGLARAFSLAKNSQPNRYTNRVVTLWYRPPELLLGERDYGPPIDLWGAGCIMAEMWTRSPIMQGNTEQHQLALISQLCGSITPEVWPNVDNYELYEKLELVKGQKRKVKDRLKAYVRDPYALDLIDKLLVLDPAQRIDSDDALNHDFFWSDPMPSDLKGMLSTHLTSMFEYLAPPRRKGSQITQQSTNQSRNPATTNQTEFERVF
# T2 sequence (O60563 whole entry partner): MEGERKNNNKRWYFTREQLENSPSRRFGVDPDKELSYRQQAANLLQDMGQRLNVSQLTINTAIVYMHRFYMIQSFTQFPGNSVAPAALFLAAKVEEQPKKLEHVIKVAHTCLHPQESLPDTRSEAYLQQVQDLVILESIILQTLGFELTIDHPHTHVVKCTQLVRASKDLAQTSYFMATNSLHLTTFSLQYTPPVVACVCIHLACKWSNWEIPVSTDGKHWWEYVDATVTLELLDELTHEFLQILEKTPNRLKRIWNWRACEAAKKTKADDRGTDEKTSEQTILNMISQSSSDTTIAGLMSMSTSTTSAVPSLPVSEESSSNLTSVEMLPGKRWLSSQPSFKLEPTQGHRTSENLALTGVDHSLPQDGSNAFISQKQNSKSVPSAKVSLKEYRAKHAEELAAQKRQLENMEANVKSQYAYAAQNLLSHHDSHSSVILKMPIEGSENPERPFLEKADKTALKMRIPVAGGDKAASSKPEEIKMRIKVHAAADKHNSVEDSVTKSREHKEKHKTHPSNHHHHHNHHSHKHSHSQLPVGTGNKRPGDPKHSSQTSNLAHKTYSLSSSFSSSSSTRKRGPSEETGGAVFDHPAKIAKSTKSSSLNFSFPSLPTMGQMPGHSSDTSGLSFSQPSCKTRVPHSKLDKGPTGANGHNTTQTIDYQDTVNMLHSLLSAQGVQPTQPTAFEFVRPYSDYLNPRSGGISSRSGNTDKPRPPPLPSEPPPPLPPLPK
structure (smiles),measurement,setting,value
"CSCc1cc2nc(c1F)N(C)CCCCOc1cc(F)ccc1-c1cc(ncc1F)N2 [Example 12, 8,16,20-trifluoro-6-methyl-9-[(methylsulfanyl)methyl]-3,4,5,6-tetrahydro-2H,12H-11,7-(azeno)-13,17-(metheno)-1,6,12,14-benzoxatriazacyclononadecine]",IC50,[1],27 nM
same,IC50,[2],100 nM
same,IC50,[3],10 nM
